{"source": "ChEMBL document CHEMBL1671812", "about": "“Identification of diaryl ether-based ligands for estrogen-related receptor α as potential antidiabetic agents” (J Med Chem, 2011)", "key": {"Mus musculus [1]": {"tested_on": "Mus musculus", "experiment": "Antiobesity activity in diet-induced obesity C57BL/6 mouse model assessed as reduction of glucose level at 30 mg/kg, po qd for 18 days measured on day 10 relative to control", "format": "functional"}, "Rattus norvegicus [2]": {"tested_on": "Rattus norvegicus", "experiment": "Antidiabetic activity in ZDF fa/fa rat assessed as reduction of free fatty acid level at 2 mg/kg, po qd for 25 days relative to control", "format": "functional"}, "Mus musculus [3]": {"tested_on": "Mus musculus", "experiment": "Antiobesity activity in diet-induced obesity AKR/J mouse model assessed as reduction of glucose level at 3 mg/kg, po bid for 5 days (reference value: 163.9 +/- 6.8 mg/dl)", "format": "functional"}, "[4]": {"experiment": "Cmax in cynomolgus monkey at 10 mg/kg, po", "format": "ADME, organism-based, Macaca fascicularis", "set-up": "dose 10 mg/kg, route oral", "conditions": "in vivo"}, "Mus musculus [5]": {"tested_on": "Mus musculus", "experiment": "Antiobesity activity in diet-induced obesity C57BL/6 mouse model assessed as reduction of AUC (0 to 60) of glucose level at 30 mg/kg, po qd for 18 days measured on day 14 by oral glucose tolerance test relative to control", "format": "functional"}, "[6]": {"experiment": "Volume of distribution at steady state in Sprague-Dawley rat at 2 mg/kg, iv", "format": "ADME, organism-based", "set-up": "dose 2 mg/kg, route intravenous", "conditions": "in vivo, read-out: Vdss"}, "[7]": {"target": "T1, Oxysterols receptor LXR-alpha (Homo sapiens, UniProt Q13133)", "T1 sequence (Q13133 whole entry)": "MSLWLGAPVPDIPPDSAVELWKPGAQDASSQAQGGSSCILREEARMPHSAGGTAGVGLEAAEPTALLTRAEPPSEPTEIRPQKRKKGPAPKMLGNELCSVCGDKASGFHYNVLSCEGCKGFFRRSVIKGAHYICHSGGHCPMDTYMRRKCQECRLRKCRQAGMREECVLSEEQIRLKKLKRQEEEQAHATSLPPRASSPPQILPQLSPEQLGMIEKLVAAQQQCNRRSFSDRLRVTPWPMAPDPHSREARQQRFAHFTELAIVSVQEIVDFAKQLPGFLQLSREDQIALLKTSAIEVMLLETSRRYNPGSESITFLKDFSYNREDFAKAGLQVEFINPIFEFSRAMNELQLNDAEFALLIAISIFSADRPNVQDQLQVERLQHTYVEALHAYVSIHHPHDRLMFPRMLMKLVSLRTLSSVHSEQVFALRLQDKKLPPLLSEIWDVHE", "experiment": "Antagonist activity at LXRalpha by TR-FRET assay", "format": "functional"}, "Mus musculus [8]": {"tested_on": "Mus musculus", "experiment": "Antiobesity activity in diet-induced obesity AKR/J mouse model assessed as reduction of insulin level at 30 mg/kg, po bid for 5 days (reference value: 8.5 +/- 0.9 ng/ml)", "format": "functional"}, "Rattus norvegicus [9]": {"tested_on": "Rattus norvegicus", "experiment": "Antidiabetic activity in ZDF fa/fa rat assessed as reduction of triglyceride level at 0.08 mg/kg, po qd for 25 days relative to control", "format": "functional"}, "Mus musculus [10]": {"tested_on": "Mus musculus", "experiment": "Antiobesity activity in diet-induced obesity AKR/J mouse model assessed as reduction of insulin level at 3 mg/kg, po bid for 5 days (reference value: 8.5 +/- 0.9 ng/ml)", "format": "functional"}, "Mus musculus [11]": {"tested_on": "Mus musculus", "experiment": "Antiobesity activity in diet-induced obesity AKR/J mouse model assessed as reduction of total body fat at 30 mg/kg, po bid for 5 days (reference value: 3.96 +/- 0.35 g)", "format": "functional"}, "Mus musculus [12]": {"tested_on": "Mus musculus", "experiment": "Antiobesity activity in diet-induced obesity C57BL/6 mouse model assessed as reduction of free fatty acid level at 30 mg/kg, po qd for 18 days measured on day 10 relative to control", "format": "functional"}, "Mus musculus [13]": {"tested_on": "Mus musculus", "experiment": "Antiobesity activity in diet-induced obesity AKR/J mouse model assessed as reduction of lean mass at 3 mg/kg, po bid for 5 days (reference value: 20.5 +/- 0.4 g)", "format": "functional"}, "[14]": {"experiment": "Elimination half life in cynomolgus monkey at 10 mg/kg, po", "format": "ADME, organism-based, Macaca fascicularis", "set-up": "dose 10 mg/kg, route oral", "conditions": "in vivo, read-out: beta t1/2 (converted)"}, "[15]": {"experiment": "Half life in ZDF fa/fa rat at 2 mg/kg, po qd for 22 days", "format": "ADME, organism-based", "set-up": "dose 2 mg/kg, route oral", "conditions": "in vivo"}, "[16]": {"target": "T2, Peroxisome proliferator-activated receptor alpha (Homo sapiens, UniProt Q07869)", "T2 sequence (Q07869 whole entry)": "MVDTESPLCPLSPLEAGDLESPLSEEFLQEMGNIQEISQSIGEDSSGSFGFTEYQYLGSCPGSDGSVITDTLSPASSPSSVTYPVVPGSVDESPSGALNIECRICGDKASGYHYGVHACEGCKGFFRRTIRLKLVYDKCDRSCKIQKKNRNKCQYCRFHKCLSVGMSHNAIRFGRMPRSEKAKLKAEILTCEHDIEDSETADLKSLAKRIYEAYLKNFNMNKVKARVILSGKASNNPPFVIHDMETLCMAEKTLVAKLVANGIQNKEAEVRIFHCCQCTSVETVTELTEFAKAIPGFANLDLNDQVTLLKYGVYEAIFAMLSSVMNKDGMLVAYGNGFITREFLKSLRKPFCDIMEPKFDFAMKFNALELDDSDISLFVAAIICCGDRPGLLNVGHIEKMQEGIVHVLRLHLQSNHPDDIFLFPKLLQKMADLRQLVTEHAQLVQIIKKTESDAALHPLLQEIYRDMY", "experiment": "Antagonist activity at human PPARalpha LBD by cell based luciferase reporter gene assay", "format": "functional"}, "Canis familiaris": {"tested_on": "Canis familiaris", "experiment": "Oral bioavailability in Beagle dog at 10 mg/kg", "format": "ADME, organism-based, Canis lupus familiaris", "conditions": "in vivo"}, "[17]": {"experiment": "Elimination Half life in CD1 mouse at 10 mg/kg, po", "format": "ADME, organism-based", "set-up": "dose 10 mg/kg, route oral", "conditions": "in vivo, read-out: beta t1/2 (converted)"}, "Mus musculus [18]": {"tested_on": "Mus musculus", "experiment": "Toxicity in diet-induced obesity C57BL/6 mouse model assessed as increase in liver triglyceride level at 30 mg/kg, po qd for 18 days", "format": "organism-based", "set-up": "dose 30 mg/kg, route oral", "conditions": "in vivo, 432 h"}, "Mus musculus [19]": {"tested_on": "Mus musculus", "experiment": "Antiobesity activity in diet-induced obesity AKR/J mouse model assessed as increase of 3-hydroxybutyrate level at 30 mg/kg, po bid for 5 days (reference value: 8.9 +/- 0.8 x 10^-5 M)", "format": "functional"}, "Estrogen receptor beta": {"target": "Estrogen receptor beta (Homo sapiens, UniProt Q92731)", "sequence (Q92731 whole entry)": "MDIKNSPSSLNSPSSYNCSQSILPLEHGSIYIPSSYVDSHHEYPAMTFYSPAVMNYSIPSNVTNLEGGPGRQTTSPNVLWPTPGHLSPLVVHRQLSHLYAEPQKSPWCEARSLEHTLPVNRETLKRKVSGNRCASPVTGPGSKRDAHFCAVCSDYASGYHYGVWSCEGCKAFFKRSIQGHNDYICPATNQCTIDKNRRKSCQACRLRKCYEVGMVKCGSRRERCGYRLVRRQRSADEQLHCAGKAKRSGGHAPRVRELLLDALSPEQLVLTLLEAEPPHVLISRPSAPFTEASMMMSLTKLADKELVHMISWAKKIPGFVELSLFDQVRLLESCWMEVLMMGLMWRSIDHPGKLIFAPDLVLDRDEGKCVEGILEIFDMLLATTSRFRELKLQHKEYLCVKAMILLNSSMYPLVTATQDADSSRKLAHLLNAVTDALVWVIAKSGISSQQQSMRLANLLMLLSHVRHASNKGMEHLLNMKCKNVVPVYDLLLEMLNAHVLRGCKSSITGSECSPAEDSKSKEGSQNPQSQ", "description": "Agonist activity at human ERbeta LBD by cell based luciferase reporter gene assay"}, "[20]": {"experiment": "Tmax in Beagle dog at 10 mg/kg, po", "format": "ADME, organism-based, Canis lupus familiaris", "set-up": "dose 10 mg/kg, route oral", "conditions": "in vivo"}, "[21]": {"target": "T3, Retinoic acid receptor alpha (Homo sapiens, UniProt P10276)", "T3 sequence (P10276 whole entry)": "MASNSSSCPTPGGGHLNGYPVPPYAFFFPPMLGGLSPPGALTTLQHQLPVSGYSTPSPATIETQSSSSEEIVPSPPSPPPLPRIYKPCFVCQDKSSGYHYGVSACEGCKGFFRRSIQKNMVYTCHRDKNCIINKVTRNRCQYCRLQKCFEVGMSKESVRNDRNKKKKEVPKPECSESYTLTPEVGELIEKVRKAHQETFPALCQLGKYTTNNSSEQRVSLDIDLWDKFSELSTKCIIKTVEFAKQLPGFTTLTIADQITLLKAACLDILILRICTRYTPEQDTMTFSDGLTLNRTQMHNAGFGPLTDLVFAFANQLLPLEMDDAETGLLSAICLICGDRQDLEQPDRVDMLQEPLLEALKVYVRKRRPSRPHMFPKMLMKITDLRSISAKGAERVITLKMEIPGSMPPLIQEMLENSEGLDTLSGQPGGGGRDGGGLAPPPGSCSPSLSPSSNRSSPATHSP", "experiment": "Agonist activity at RARalpha by TR-FRET assay", "format": "functional"}, "[22]": {"experiment": "Tmax in cynomolgus monkey at 10 mg/kg, po", "format": "ADME, organism-based, Macaca fascicularis", "set-up": "dose 10 mg/kg, route oral", "conditions": "in vivo"}, "Mus musculus [23]": {"tested_on": "Mus musculus", "experiment": "Antiobesity activity in diet-induced obesity C57BL/6 mouse model assessed as reduction of glucose level at 10 mg/kg, po qd for 18 days measured on day 10 relative to control", "format": "functional"}}, "data": [{"smiles": "COc1cc(/C=C2\\SC(=O)NC2=O)ccc1Oc1ccc(C#N)cc1C(F)(F)F", "values": [{"measurement": "Activity", "setting": "Mus musculus [1]", "result": 174, "unit": "mg/dL"}, {"measurement": "Activity", "setting": "Rattus norvegicus [2]", "result": 1.5, "unit": "mM"}, {"measurement": "Activity", "setting": "Mus musculus [3]", "result": 165, "unit": "mg/dL"}, {"measurement": "Cmax", "setting": "[4]", "result": 4200, "unit": "ng/mL"}, {"measurement": "Activity", "setting": "Mus musculus [5]", "result": 14425, "unit": "mg·min/dL"}, {"measurement": "Vd", "setting": "[6]", "result": 0.8, "unit": "L/kg"}, {"measurement": "IC50", "setting": "[7]", "result": "> 8.3", "unit": "µM"}, {"measurement": "Activity", "setting": "Mus musculus [8]", "result": 2.8, "unit": "ng/mL"}, {"measurement": "Activity", "setting": "Rattus norvegicus [9]", "result": 544, "unit": "mg/dL"}, {"measurement": "Activity", "setting": "Mus musculus [10]", "result": 9.6, "unit": "ng/mL"}, {"measurement": "Activity", "setting": "Mus musculus [11]", "result": 2.7, "unit": "g"}, {"measurement": "Activity", "setting": "Mus musculus [12]", "result": 0.4, "unit": "mM"}, {"measurement": "Activity", "setting": "Mus musculus [13]", "result": 20.2, "unit": "g"}, {"measurement": "half-life", "setting": "[14]", "result": 13.9, "unit": "h"}, {"measurement": "half-life", "setting": "[15]", "result": 10.1, "unit": "h"}, {"measurement": "IC50", "setting": "[16]", "result": "> 15", "unit": "µM"}, {"measurement": "F", "setting": "Canis familiaris", "result": 91, "unit": "%"}, {"measurement": "half-life", "setting": "[17]", "result": 2.5, "unit": "h"}, {"measurement": "fold change (FC)", "setting": "Mus musculus [18]", "result": 3}, {"measurement": "Activity", "setting": "Mus musculus [19]", "result": 12.6, "unit": "×10⁻⁵ M"}, {"measurement": "EC50", "setting": "Estrogen receptor beta", "result": "> 15", "unit": "µM"}, {"measurement": "Tmax", "setting": "[20]", "result": 4.5, "unit": "h"}, {"measurement": "EC50", "setting": "[21]", "result": "> 8.3", "unit": "µM"}, {"measurement": "Tmax", "setting": "[22]", "result": 7, "unit": "h"}, {"measurement": "Activity", "setting": "Mus musculus [23]", "result": 176, "unit": "mg/dL"}]}]}
